Source: PMC6476888, “Design and synthesis of anticancer 1-hydroxynaphthalene-2-carboxanilides with a p53 independent mechanism of action” (Scientific Reports, 2019)
Like-named read-outs stand apart in the source and are kept apart here.

Legend:
[1] = tested on: p53/p21 system in the HCT116 cells; test: Western blot of p53/p21 activation; type: cell-based, human; details: wild-type HCT116, 12 and 24 h
Protocol: Further exploration of the cell death model was performed by a western blot analysis of protein activation in response to incubation with the tested compound (Figs 6, 7). […] The proapoptotic activation of the p53/p21 system was noticeable after the first 12 hours and then became stronger after 24 h. This effect was not observed in the case of the p53 null cells, which were unable to synthesize this protein.
The HCT116 cells were seeded in 3-cm Petri dishes (Nunc) at a density of 0.5·10^6 cells/well and incubated overnight. […] The cells were harvested by trypsinization and washed with cold PBS. Next, the cells were centrifuged and suspended in an RIPA buffer (Thermo-Fisher Scientific) containing Halt Protease Inhibitor Cocktail (Thermo-Fisher Scientific), Halt Phosphatase Inhibitor Cocktail (Thermo-Fisher Scientific) along with 0.5 M EDTA and lysed for 20 min on ice. Then, the lysates were sonicated, centrifuged at 10,000 rpm for 10 min at 4 °C and the supernatants were collected for further analysis. The protein concentration was determined using a Micro BCA™ Protein Assay Kit (Thermo-Fisher Scientific, Waltham, MA, USA c) according to the manufacturer’s instructions. Equal amounts of the proteins (20 μg) were electrophoresed on SDS-Page gels and transferred onto nitrocellulose membranes. The membranes were blocked in 5% non-fat milk prepared in PBS containing 0.1% Tween-20 (TPBS) for 1 h. After blocking, the membranes were incubated with specific primary antibodies: p21^Waf1/Cip1, p53, cytochrome c, caspase-8, caspase-9, AIF, PARP, GAPDH and β-Actin overnight at 4 °C, and then washed and incubated with horseradish peroxidase (HRP)-conjugated secondary antibodies for 1 h at room temperature. All of the antibodies were purchased from CellSignaling (Danvers, MA, USA) and were diluted 1:1000 in 5% milk in TPBS. Finally, the membranes were washed and incubated with a SuperSignal™ West Pico Chemiluminescent Substrate (Thermo-Fisher Scientific). The chemiluminescence signals were captured using a ChemiDoc™ XRS+ System (Bio-Rad Laboratories, Hercules, CA, USA). The experiments were performed at least three times. Densitometric analysis was performed using ImageJ 1.41 software (Wayne Rasband, National Institutes of Health, USA).

[2] = tested on: HCT116^+/+; test: Antiproliferative assay (MTS, 72 h) on HCT116 wild type; type: cell-based, human; details: MTS, 72 h incubation, read-out: Activity IC50 HCT116^+/+
[3] = tested on: HCT116^−/−; test: Antiproliferative assay (MTS, 72 h) on HCT116 with p53 deletion; type: cell-based, human; details: MTS, 72 h incubation
[4] = tested on: NHDF; test: Cytotoxicity (MTS, 72 h) against normal human fibroblasts; type: cell-based; details: MTS, 72 h incubation
[5] = tested on: CT-DNA; test: Spectrophotometric DNA intercalation assay; type: binding, calf; details: for Changes in absorbance: bound to CT-DNA (18 µM), 1.5 h 37 °C, Tris-HCl pH 7.9; for % hypochromism / Δε: bound to CT-DNA; for red shift: wavelengths of maximum absorption, individual vs DNA-bound compound
Description: The fused aromatic rings of the naphthalene moiety and halogen substituents in aniline may guarantee good intercalating properties[71],[72]. On the other hand, the intercalation of DNA may explain the high activity against both the wild-type and p53 mutants as was reported for a series of styrylquinolines. Binding to DNA causes the bases to mismatch or cleave, which results in the arrest of the cell cycle and apoptosis. The effectiveness of the p53 system is one of the most important factors in the response to therapy. We tested the intercalating properties of the selected compounds in a spectrophotometric assay on calf-thymus DNA. The absorption spectra of the tested compounds in the absence and presence of CT-DNA are presented in Figure S1 Supplementary Information and the spectral properties with doxorubicine and CP-31398 are summarized in Table 2.
For the DNA binding studies, Calf-thymus DNA (CT-DNA) was purchased from Sigma- Aldrich. The lyophilized CT-DNA was dissolved in 10 mM Tris-HCl, pH 7.9, mixed gently and left overnight at 4 °C. The purity of the CT-DNA solution was determined by measuring the ratio of UV absorbance at 260 and 280 nm. […] Then, the concentration of CT-DNA was determined from the absorbance at 260 nm using an extinction coefficient of 6600 M^−1cm^−1. The tested compounds including DOX and CP-31398 were dissolved to a concentration of 8.35 mM in DMSO, which was then used as the stock solution for preparing the various concentrations (25, 12.5, 6 and 3 µM) in 1 mL in 10 mM of Tris-HCl (pH 7.9). Afterwards, 18 µM CT-DNA was added to the prepared solutions, which were incubated for 1.5 h at 37 °C with occasional vortexing. The absorption spectra were measured using a Hitachi U-2900 spectrophotometer in the range of 200–500 nm. All absorption spectra were imported into OriginPro 8.0 and compared.

[6] = for CP-31398 first value (312 nm band)

SMILES	p21 protein amount [1]	p53 protein amount / activation [1]	IC50 ([2]; Homo sapiens, HCT-116)	IC50 ([3]; Homo sapiens, HCT-116)	IC50 ([4]; Homo sapiens, NHDF)	Changes in absorbance [5]	% hypochromism [5, 6]	Δε [5, 6]	red shift [5]	IC50 [2]	IC50 [3]	IC50 [4]	% hypochromism ([5]; second value (350 nm band))	Δε ([5]; second value (350 nm band))
COc1cccc2c1C(=O)c1c(O)c3c(c(O)c1C2=O)C[C@@](O)(C(=O)CO)C[C@@H]3O[C@H]1C[C@H](N)[C@H](O)[C@H](C)O1 [DOX, doxorubicin, reference compound]	dramatic increase	dramatic increase	0.34 ± 0.04 µM	0.38 ± 0.03 µM	3.38 ± 1.29 µM	hypochromism	34.2%	3235.6 M⁻¹ cm⁻¹	10 nm					
COc1ccc(/C=C/c2nc(NCCCN(C)C)c3ccccc3n2)cc1 [CP-31398, reference compound]						hypochromism	41.4%	1515.6 M⁻¹ cm⁻¹	0 nm	18.6 ± 0.92 µM	26.3 ± 1.41 µM	12.3 ± 0.54 µM	37.4%	1693.3 M⁻¹ cm⁻¹
